# Data: patent publication US4645760A, “Activated aminoglycosides and aminoglycoside-aminocyclitols pharmaceutical compositions and method of use” (priority 1983, dated 1987)
# Counter-ions that a name gives are not always drawn.
# Key:
# superoxide free radicals = test: block of nitro-blue tetrazolium (NBT) reduction by superoxide; type: biochemical; settings: photoreduced riboflavin or xanthine-xanthine oxidase; 560 nm; unactivated aminoglycosides
# From the text: (§1) The auto-oxidation of epinephrine is blocked on a mole-to-mole basis by aminoglycosides and aminoglycoside-aminocyclitols. […] Other colorimetric or chemiluminescence assays for superoxide or hydroxyl radicals which use dyes or other reagents that can develop color selectively in the presence of these radicals can also form the basis of rapid photometric assays for parent aminoglycoside and aminoglycoside-aminocyclitol levels in biological or other aqueous solutions. The degree to which colored products are blocked by the aminoglycoside or the aminoglycoside-aminocyclitol compound would be directly proportional to the concentration of aminoglycosides and aminoglycoside-aminocyclitol compounds. Representative dyes and reactants include the following non-limitative list:
# This is spectrophotometrically monitored at 560 nm, where the maximum absorbance of reduced NBT occurs. This procedure decreases in sensitivity at pH's higher than 7.0 and at very high (millimolar) drug concentrations. The reason for these limits is that superoxide reacts with aminoglycosides to generate a reducing compound which can interfere with the assay by directly reducing NBT.
# epinephrine autoxidation = epinephrine autoxidation inhibition assay (oxygen radical reactivity); type: biochemical; settings: for IC50: 25° C., 0.1M sodium carbonate, pH 10.2, A320, sulfate form, read-out: (A) Molarity for 50% inhibition of epinephrine autoxidation; for relative molar ratio for 50% inhibition: KM:SM:NM:GM; for B/A Molar ratio (epinephrine molarity / molarity for 50% inhibition): pH 10.2, 25° C.
# Description: The oxygen radical reactivity of 4-aminoglycosides KM, streptomycin (SM), neomycin (NM), and gentamicin (GM) was tested using a previously described modification of the commonly used epinephrine autoxidation assay. […] Further studies are required to determine the identification of the reacting active oxygen species (e.g. singlet oxygen, hydroperoxy radicals, superoxide radicals, hydroxyl radicals, or others).
# Reactions were performed at 25° C.; in 0.1M sodium carbonate, pH 10.2. Absorbance at 320 nm (A320) as measured with a Varian model 219 spectrophotometer. Antibiotics (Sigma) were used in the sulfate form; the working molecular weight reflects the anhydrous weight of the base. At least five aminoglycoside concentrations, each replicated four times, were used to estimate the 50% epinephrine autoxidation inhibition value. Epinephrine concentrations yielding between 0.23 and 0.27 ΔA320 per minute was the basis for calculating the percent of inhibition. The data were analyzed by linear regression; standard deviations are shown.
# When the unactivated aminoglycoside-aminocyclitol compounds are added at pH=10.2 to a cuvette containing epinephrine and 0.1 molar carbonate buffer, the aminoglycosides block the autoxidation of epinephrine to adrenochrome on approximately a mole-to-mole basis. This blockade is monitored spectrophotometrically at 320 nm and is a linear function of drug concentration. Using 9×10^-4 molar epinephrine, the linear region extends from 10^-5 to 10^-3 molar aminoglycoside. The sensitivity of this assay can be extended by lowering the starting epinephrine concentration.
# B. subtilis = test: antibiotic disc diffusion after riboflavin/methionine/UV activation; type: cell-based; settings: for potency enhancement of mixture of activated compound and parent compound: 2.8×10^-5 M riboflavin, 0.01M methionine, half hour uv light; for potency after coincubation with irradiated riboflavin vs riboflavin-free parent solution: Example 5, methionine, 365 nm, half hour
# Description: The parent compounds in the above table were subjected to two synthetic activation processes according to the present invention. As set forth below, the parent compound was incubated with 2.8×10^-5 M riboflavin and 0.01M methionine (a hydrogen donor) for a half hour in the presence of a uv light.
# A solution of […] riboflavin, and a hydrogen donor such as 0.01M methionine, was irradiated with ultraviolet light at 365 nm for a half hour to produce oxygen-free radicals.
# [1] = tested on: Pseudomonas aeruginosa (ATCC 22853); test: disc inhibition zone, Pseudomonas aeruginosa (Table 1); type: cell-based; settings: ATCC22853, read-out: mm inhibition zone due to 40 μgm/disc, organism - Pseudomonas aeruginosa
# Description: (§2) ^1 9 ml antibiotic #5 agar (Difco), was poured warm into 15 ×
# (§3) 100 mm Plastic petri dishes and seeded with test bacteria to a density of
# (§4) 2 × 10^6 bacteria per ml (except B. subtilis which was seeded a
# (§5) in item 2 below). Q uarter inch sterile filter discs were placed on the
# (§6) agars and loaded with 20 microliters of test solutions at concentrations
# (§7) of 2000 and 200 ppm. The antibiotic amounts therefore were 40
# (§8) micrograms/disc or 4 micrograms/disc. Slopes were based on duplicate
# (§9) tests of each substance at these two concentrations. All substances, each
# (§10) at two concentrations were tested on each plate. Data were averaged.
# (§11) ^3 Concentration of compound 4 MM 0500a1 was adjusted to represent th
# (§12) total organic content. That is, 2000 ppm means 2000 parts organic materia
# (§13) per million parts water.
# E. Coli (ATC 25922) = test: disc inhibition zone, E. Coli (Table 1); type: cell-based; settings: for zone of inhibition at 40 µg/disc: Escherichia coli, read-out: mm inhibition zone due to 40 μgm/disc, organism - E. Coli; for mm inhibition zone, E. Coli per log concentration antibiotic: slope, 2000 and 200 ppm
# Description: as §2, §3, §4, §5, §6, §7, §8, §9, §10, §11, §12, §13
# [2] = type: physicochemical
# [3] = tested on: Pseudomonas maltophilispp.; test: disc inhibition zone, Pseudomonas maltophilia (Table 1); type: cell-based; settings: read-out: mm inhibition zone due to 40 μgm/disc, organism - Pseudomonas maltophilispp.
# Description: as §2, §3, §4, §5, §6, §7, §8, §9, §10, §11, §12, §13
# Bacillus subtilis = test: disc inhibition zone, Bacillus subtilis (Table 1); type: cell-based; settings: for zone of inhibition at 40 µg/disc: Bacillus subtilis, 40 μgm/disc, 30 degrees, 18 hours, read-out: mm inhibition zone due to 40 μgm/disc, organism - Bacillus subtilis; for mm inhibition zone, B. subtilis per log concentration antibiotic: slope by regression
# Description: ^2 9 ml antibiotic #5 media (Difco), seeded to a concentration of 0.2
# microliters of B. subtilis spores/500 ml agar, was dispensed into 15
# × 100 ml plastic petri dishes. One quarter inch Schleicher and
# Schuell sterile filter discs were placed on the agar and loaded with 20
# microliters of dilutions of test compound including dilutions of 2000 ppm
# 600 ppm, 200 ppm, 60 ppm, and 20 ppm. The plates were incubated overnight
# at 30 degrees centigrade, the inhibition zones measured at 18 hours. All
# values were based on 6 tests at a given concentration; each plate was
# corrected to an average kill zone due to 20 microliters of neomycin B bas
# at a concentration of 30 ppm. Slopes and kill zones for 40 microgramloade
# discs were obtained usi ng regression analysis.
# as §11, §12, §13
# S. aureus (ATCC 25923) = test: disc inhibition zone, S. aureus (Table 1); type: cell-based; settings: for zone of inhibition at 40 µg/disc: Staphylococcus aureus, ATCC25923, read-out: mm inhibition zone due to 40 μgm/disc, Staphylococcus aureus (printed "coccus aureus"); for mm inhibition zone, S. aureus per log concentration antibiotic: slope, 2000 and 200 ppm
# Description: as §2, §3, §4, §5, §6, §7, §8, §9, §10, §11, §12, §13
# hydroxyl free radicals = test: hydroxyl free radical spin-adduct formation by Electron Paramagnetic Resonance; type: biochemical; settings: spin traps ntb or DMPO; xanthine/xanthine oxidase, pH 7.8; millimolar drug
# From the text: as §1
# Two spin traps were examined with the same conclusion, nitrosotertiary-butyl (ntb) and 5,5-dimethyl-1-pyrroline-1-oxide. The reaction mixture used to produce hydroxyl radical included 10^-4 M xanthine, 6×10^-8 M xanthine oxidase, 10^-3 EDTA, 10^-4 M spin trap (DMPO or ntb), 8.9×10^-5 M H2 O2, 0.1M potassium phosphate buffer; final pH--7.8. The free radical signals were directly monitored with and without the antibiotics by using the techniques of Electron Paramagnetic Resonance starting 2 minutes after reaction initiation. The scan range=100 Gauss; time constant=0.064 sec; modulation amplitude=1 Gauss; Microwave power=1 Mw; Microwave frequency=9.418 GHz; Field set=3350 Gauss; scan time=20 seconds; modulation frequency=100 KHz. AH =AN =14.9 G.
# [4] = tested on: bacteria (E. coli, Pseudomona aeruginosa); test: bacterial killing by aminoglycosides (gentamicin, kanamycin) with coincubated enzyme; type: cell-based; settings: coincubation, extracellular enzyme
Molecule,NBT reduction rate / blockade (superoxide free radicals),IC50 (epinephrine autoxidation) [mM],relative molar ratio for 50% inhibition (epinephrine autoxidation),B/A Molar ratio (epinephrine molarity / molarity for 50% inhibition) (epinephrine autoxidation),potency enhancement of mixture of activated compound and parent compound (B. subtilis) [%],potency after coincubation with irradiated riboflavin vs riboflavin-free parent solution (B. subtilis),hydroxyl free radical spin-adduct formation (hydroxyl free radicals),other results
"NC[C@H]1O[C@H](O[C@H]2[C@H](O)[C@@H](O[C@H]3O[C@H](CO)[C@@H](O)[C@H](N)[C@H]3O)[C@H](N)C[C@@H]2N)[C@H](O)[C@@H](O)[C@@H]1O [KM, kanamycin]",the rate of NBT reduction is slowed proportionally to the concentration of aminoglycoside,0.7 ± 0.1,~ 6,1.11,25,enhanced potency,–,epinephrine autoxidation blocked (epinephrine autoxidation; fourfold molar excess of KM): 97%
"NC[C@@H]1O[C@H](O[C@H]2[C@@H](O)[C@H](O[C@@H]3[C@@H](O)[C@H](N)C[C@H](N)[C@H]3O[C@H]3O[C@H](CN)[C@@H](O)[C@H](O)[C@H]3N)O[C@@H]2CO)[C@H](N)[C@@H](O)[C@@H]1O [NM, neomycin]",–,2.1 ± 0.14,~2,0.39,100,enhanced potency,–,–
"NC[C@@H]1O[C@H](O[C@H]2[C@@H](O)[C@H](O[C@@H]3[C@@H](O)[C@H](N)C[C@H](N)[C@H]3O[C@H]3O[C@H](CN)[C@@H](O)[C@H](O)[C@H]3N)O[C@@H]2CO)[C@H](N)[C@@H](O)[C@@H]1O [NMb, Neomycin B base]",the rate of NBT reduction is slowed proportionally to the concentration of aminoglycoside,–,–,–,–,–,–,"zone of inhibition at 40 µg/disc [1]: 10.7 mm; zone of inhibition at 40 µg/disc (E. Coli (ATC 25922)): 14.9 mm; mm inhibition zone, E. Coli per log concentration antibiotic (E. Coli (ATC 25922)): 5.5 mm per log concentration; solubility in DMSO [2]: DMSO- insoluble; zone of inhibition at 40 µg/disc [3]: 8.3 mm; zone of inhibition at 40 µg/disc (Bacillus subtilis): 23.3 mm; mm inhibition zone, B. subtilis per log concentration antibiotic (Bacillus subtilis): 5.6 mm per log concentration; zone of inhibition at 40 µg/disc (S. aureus (ATCC 25923)): 17.2 mm; mm inhibition zone, S. aureus per log concentration antibiotic (S. aureus (ATCC 25923)): 6.1 mm per log concentration"
"NC[C@H]1O[C@H](O[C@H]2[C@H](O)[C@@H](O)[C@H](N)C[C@@H]2N)[C@H](N)[C@@H](O)[C@@H]1O [Neomycin A base (neamine), Neomycin A base]",–,–,–,–,–,–,–,"zone of inhibition at 40 µg/disc [1]: 0 mm; zone of inhibition at 40 µg/disc (E. Coli (ATC 25922)): 24.7 mm; mm inhibition zone, E. Coli per log concentration antibiotic (E. Coli (ATC 25922)): 7.8 mm per log concentration; zone of inhibition at 40 µg/disc [3]: 0 mm; zone of inhibition at 40 µg/disc (Bacillus subtilis): 33.8 mm; mm inhibition zone, B. subtilis per log concentration antibiotic (Bacillus subtilis): 7.0 mm per log concentration; zone of inhibition at 40 µg/disc (S. aureus (ATCC 25923)): 29.8 mm; mm inhibition zone, S. aureus per log concentration antibiotic (S. aureus (ATCC 25923)): 9.4 mm per log concentration"
"[H]/N=C(/N)N[C@H]1[C@H](O)[C@@H](O)[C@H](O[C@@H]2O[C@@H](C)[C@](O)(C=O)[C@H]2O[C@@H]2O[C@@H](CO)[C@H](O)[C@@H](O)[C@@H]2NC)[C@@H](N/C(N)=N\[H])[C@@H]1O [SM, streptomycin]",–,0.74 ± 0.1,~ 6,1.08,18,enhanced potency,–,–
NC[C@H]1O[C@H](O[C@H]2[C@H](O)[C@@H](O[C@H]3O[C@H](CO)[C@@H](O)[C@H](N)[C@H]3O)[C@H](N)C[C@@H]2N)[C@H](O)[C@@H](O)[C@@H]1O [kanamycin sulfate],–,–,–,–,–,–,prevented in a concentration-dependent manner,–
"NC[C@@H]1O[C@H](O[C@H]2[C@@H](O)[C@H](O[C@@H]3[C@@H](O)[C@H](N)C[C@H](N)[C@H]3O[C@H]3O[C@H](CN)[C@@H](O)[C@H](O)[C@H]3N)O[C@@H]2CO)[C@H](N)[C@@H](O)[C@@H]1O [neoomycin B sulfate, neomycin B sulfate]",–,–,–,–,–,–,prevented in a concentration-dependent manner,–
[H]/N=C(/N)N[C@H]1[C@H](O)[C@@H](O)[C@H](O[C@@H]2O[C@@H](C)[C@](O)(C=O)[C@H]2O[C@@H]2O[C@@H](CO)[C@H](O)[C@@H](O)[C@@H]2NC)[C@@H](N/C(N)=N\[H])[C@@H]1O [streptomycin sulfate],–,–,–,–,–,–,prevented in a concentration-dependent manner,–
Catalase,–,–,–,–,–,–,–,"effect on bacterial killing by aminoglycosides (gentamicin, kanamycin) [4]: Catalase blockade occurs alone"
gentamicin [GM],the rate of NBT reduction is slowed proportionally to the concentration of aminoglycoside,4.4 ± 0.46,~1,0.19,167,enhanced potency,–,–
